This assay deals with soluble guanylate cyclase (sGC) (Homo sapiens (Human), UniProt Q02108+Q02153). Nature of the assay: sGC-HEK-cGMP assay with SNP incubation, LC/MS detection (Example 2A). In kind it is cell-based. The following applies: HEK293 cells, 10 μM SNP, LC/MS detection; for Emax: 100% = BAY 41-2272 at 10 μM, read-out: HEK assay Emax - unconstrained (%). The method, then:
Human embryonic kidney cells (HEK293), endogenously expressing soluble guanylate cyclase (sGC), were used to evaluate the activity of test compounds. Compounds stimulating the sGC receptor should cause an increase in the intracellular concentration of cGMP. HEK 293 cells were seeded in Dulbecco's Modification of Eagle's Medium supplemented with fetal bovine serum (10% final) and L-glutamine (2 mM final) in a 200 L volume at a density of 1×10^5 cells/well in a poly-D-lysine coated 96 well flat bottom plate and grown overnight at 37° C. Medium was aspirated and cells were washed with 1× Hank's Buffered Saline Salt Solution (200 μL). Cells were then incubated for 15 minutes at 37° C. with 200 μL of a 0.5 mM 3-isobutyl-1-methylxanthine (IBMX) solution. Test article and sodium nitroprusside solutions (x μM concentration for test article solution and 10 μM concentration for SNP solution; wherein x is one of the following concentrations: 30 μM, 10 μM, 3 μM, 1 μM, 0.3 μM, 0.1 μM, 0.03 μM, 0.01 μM, 0.003 μM, 0.001 μM, 0.0003 μM or 0.0001 μM) were then added to the assay mixture (2 μL each) and the resulting mixture incubated at 37° C. for 10 minutes. After the 10 minute incubation, the assay mixture was aspirated and 0.1M HCl (200 μL) was added to the cells. The plate was incubated at 4° C. for 30 minutes in the 0.1M HCl to stop the reaction and lyse the cells. The plates were then centrifuged at 1,200 g for 5 minutes at room temperature. Supernatants were collected and transferred to a new flat bottom 96 well plate for analysis by HPLC-MS. Vehicle controls were carried out using DMSO (1%) solutions. A known sGC stimulator, BAY 41-2272, was used as the positive control. Samples were diluted with an equal volume of 1 M Ammonium Acetate (pH 7) to neutralize samples for better chromatography. A 2× cGMP standard solution was prepared in 0.1 M HCl and then diluted with an equal volume of 1 M Ammonium Acetate, with the following final concentrations in nM: 1024, 512, 256, 128, 64, 32, 16, 8, 4, 2, 1. cGMP concentrations in the test plates were determined from each sample using the LC/MS conditions shown in Table 2 below and the calculated cGMP standard curve. EC50 values were calculated from concentration-response curves generated with GraphPad Prism Software. Data were normalized to a high control using the following equation: 100*(Sample−Low Control)/(High Control−Low Control), where the low control is the average of 6 samples treated with 1% DMSO, and the high control is the average of 8-12 samples treated with 10 uM BAY 41-2272. Data were fit using a non-linear regression, sigmoidal dose response, 3 parameter fits.

Where [1] appears, read: top of curve not fitted to 100%, read-out: HEK assay EC50 - unconstrained.
Setting [2] is: top of curve fitted to 100%, read-out: HEK assay EC50 - constrained.

Where two headings read alike, the source gives them in different places. Bounds are passed on as bounds.

Chain of soluble guanylate cyclase (sGC) (Q02153 whole entry): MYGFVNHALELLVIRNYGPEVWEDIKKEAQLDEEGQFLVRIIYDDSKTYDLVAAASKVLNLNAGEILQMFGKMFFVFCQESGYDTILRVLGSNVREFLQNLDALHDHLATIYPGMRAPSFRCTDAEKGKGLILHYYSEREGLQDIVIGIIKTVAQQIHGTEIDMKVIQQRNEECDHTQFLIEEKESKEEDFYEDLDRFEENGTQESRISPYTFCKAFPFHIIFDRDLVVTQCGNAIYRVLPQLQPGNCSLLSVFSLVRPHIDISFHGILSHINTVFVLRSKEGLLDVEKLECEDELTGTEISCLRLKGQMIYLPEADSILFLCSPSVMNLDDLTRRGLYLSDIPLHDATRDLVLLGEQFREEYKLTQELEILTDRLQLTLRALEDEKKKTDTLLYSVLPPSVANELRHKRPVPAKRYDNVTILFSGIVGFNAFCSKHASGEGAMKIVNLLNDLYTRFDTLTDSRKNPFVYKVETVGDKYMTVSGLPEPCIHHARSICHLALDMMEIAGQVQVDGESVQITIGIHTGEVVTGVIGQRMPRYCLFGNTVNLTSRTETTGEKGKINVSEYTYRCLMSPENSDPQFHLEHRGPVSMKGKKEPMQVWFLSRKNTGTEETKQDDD
Chain of soluble guanylate cyclase (sGC) (Q02108 whole entry): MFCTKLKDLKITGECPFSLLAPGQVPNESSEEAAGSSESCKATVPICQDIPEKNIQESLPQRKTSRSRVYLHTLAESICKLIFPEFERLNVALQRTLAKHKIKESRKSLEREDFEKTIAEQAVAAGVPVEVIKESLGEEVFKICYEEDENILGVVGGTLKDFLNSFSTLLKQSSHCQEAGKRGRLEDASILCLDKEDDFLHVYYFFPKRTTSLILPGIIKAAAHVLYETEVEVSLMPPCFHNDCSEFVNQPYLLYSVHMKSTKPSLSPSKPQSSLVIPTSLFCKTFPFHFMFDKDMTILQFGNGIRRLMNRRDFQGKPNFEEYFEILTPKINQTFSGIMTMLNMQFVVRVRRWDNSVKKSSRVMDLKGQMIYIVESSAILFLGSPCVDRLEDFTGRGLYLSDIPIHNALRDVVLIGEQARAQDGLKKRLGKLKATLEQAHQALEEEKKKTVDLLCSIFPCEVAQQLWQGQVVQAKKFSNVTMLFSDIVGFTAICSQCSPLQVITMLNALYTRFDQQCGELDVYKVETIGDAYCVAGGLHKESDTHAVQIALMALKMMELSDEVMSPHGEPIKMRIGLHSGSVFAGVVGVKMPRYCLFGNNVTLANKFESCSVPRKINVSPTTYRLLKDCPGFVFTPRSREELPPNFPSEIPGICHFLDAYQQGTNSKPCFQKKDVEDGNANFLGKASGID

The Emax is the greatest response seen or fitted, relative to the assay's reference. A word on the EC50: it is the midpoint of the concentration-response curve. Regarding `OC[C@H]1CCCN1c1nc(-c2cc(-c3ccon3)n(Cc3ccccc3F)n2)ncc1F` [Compound I-155], the Emax lay within 60 to 80%. Besides, the EC50 under setting [1] lay within 0.1 to 0.5 µM.
For `O=C(O)[C@H]1CCC[C@H]1Nc1nc(-c2cc(-c3ccon3)n(Cc3ccccc3F)n2)ncc1F` [Compound I-156], in that order: 80 to 100% and 0.1 to 0.5 µM.
For `CC(C)C[C@H](Nc1nc(-c2cc(-c3ccon3)n(Cc3ccccc3F)n2)ncc1F)C(=O)NS(=O)(=O)C1CC1` [Compound I-157], in that order: 60 to 80% and 0.1 to 0.5 µM.
For `CNS(=O)(=O)N1CCN(c2nc(-c3cc(-c4ccon4)n(Cc4ccccc4F)n3)ncc2F)CC1` [Compound I-158], in that order: 60 to 80% and 0.001 to 0.1 µM.
As for `O=C(O)[C@@H](Cc1ccc(O)cc1)Nc1nc(-c2cc(-c3ccon3)n(Cc3ccccc3F)n2)ncc1F` [Compound I-165], the EC50 under setting [2] is above 10 µM.
With `CCOC(=O)CN(Cc1ccccc1)c1nc(-c2cc(-c3ccon3)n(Cc3ccccc3F)n2)ncc1F` [Compound I-166], the Emax was in the range of 40 to 60%. Further, the EC50 under setting [1] fell in the range of 0.1 to 0.5 µM.
For `CCOC(=O)CN(C)c1nc(-c2cc(-c3ccon3)n(Cc3ccccc3F)n2)ncc1F` [Compound I-167], in that order: 80 to 100% and 0.001 to 0.1 µM.
For `O=C(O)CN(Cc1ccccc1)c1nc(-c2cc(-c3ccon3)n(Cc3ccccc3F)n2)ncc1F` [Compound I-168], in that order: 60 to 80% and 0.1 to 0.5 µM.
For `CN(CCC(=O)O)c1nc(-c2cc(-c3ccon3)n(Cc3ccccc3F)n2)ncc1F` [Compound I-169], in that order: 60 to 80% and 0.1 to 0.5 µM.
With `CC(CN(C)c1nc(-c2cc(-c3ccon3)n(Cc3ccccc3F)n2)ncc1F)C(=O)O` (stereo not shown) [Compound I-170], the Emax lay within 60 to 80%. Moreover, the EC50 under setting [1] is 0.1 to 0.5 µM.
For `CC(C)[C@H](CNc1nc(-c2cc(-c3ccon3)n(Cc3ccccc3F)n2)ncc1F)C(=O)O` [Compound I-171], in that order: 60 to 80% and 0.001 to 0.1 µM.
Take `COc1nc(-c2cc(-c3ccon3)n(Cc3ccccc3F)n2)nc(N2CCOCC2)c1F` [Compound I-172]: the EC50 under setting [2] is above 10 µM.
With `CC(C)[C@@H](CNc1nc(-c2cc(-c3ccon3)n(Cc3ccccc3F)n2)ncc1F)C(=O)O` [Compound I-173], the Emax was 60 to 80%. The EC50 under setting [1] was 0.1 to 0.5 µM.
For `O=C(O)CCNc1nc(-c2cc(-c3ccon3)n(Cc3ccccc3F)n2)ncc1F` [Compound I-174], in that order: 60 to 80% and 0.5 to 1 µM.
The corresponding values for `CS(=O)(=O)C1CCN(c2nc(-c3cc(-c4ccon4)n(Cc4ccccc4F)n3)ncc2F)CC1` [Compound I-175] are 100 to 120% and 0.001 to 0.1 µM.
On to `CN(CC(=O)O)c1nc(-c2cc(-c3ccon3)n(Cc3ccccc3F)n2)ncc1F` [Compound I-176], for which the Emax is 40 to 60%. Also, under setting [1], the EC50 lay within 1 to 5 µM.
For `CC(=O)NS(=O)(=O)N1CCN(c2nc(-c3cc(-c4ccon4)n(Cc4ccccc4F)n3)ncc2F)CC1` [Compound I-177], in that order: 60 to 80% and 0.1 to 0.5 µM.
The corresponding values for `CS(=O)(=O)CCC(Nc1nc(-c2cc(-c3ccon3)n(Cc3ccccc3F)n2)ncc1F)C(=O)O` (stereo not shown) [Compound I-178] are 40 to 60% and 5 to 10 µM.
On to `O=C(O)[C@H]1CC[C@@H](Nc2nc(-c3cc(-c4ccon4)n(Cc4ccccc4F)n3)ncc2F)C1` [Compound I-179], for which the Emax is 80 to 100%. The EC50 under setting [1] was 0.1 to 0.5 µM.
For `O=C(O)C(CC(F)(F)F)Nc1nc(-c2cc(-c3ccon3)n(Cc3ccccc3F)n2)ncc1F` (stereo not shown) [Compound I-180], in that order: 80 to 100% and 1 to 5 µM.
For `CC(C)[C@@H](CC(=O)O)Nc1nc(-c2cc(-c3ccon3)n(Cc3ccccc3F)n2)ncc1F` [Compound I-181], in that order: 100 to 120% and 0.5 to 1 µM.

Values taken from patent US10183021B2, “sGC stimulators” (Ironwood Pharmaceuticals, Inc., priority 2013, dated 2019).
